# In patent US7514426B2, “Substituted imidazol[1,5-A][1,2,4]triazolo[1,5-D][1,4]benzodiazepine derivatives” (priority 2004, dated 2009):
# pKi: −log10 of the molar value. Where two headings read alike, the source gives them in different places.
# Assays:
# Assay in all cases: [3H]flumazenil competition binding, HEK293 cell membranes
# [1] = biological target: T1, human GABA A receptor α1β3γ2 (Homo sapiens, UniProt P14867+P18507); settings: for Ki: human α1β3γ2, transiently transfected HEK293, 1 nM [3H]flumazenil, mean of two determinations, read-out: Ki[nM] hα1
# T1 construct: expressed in transfected cells; host or cells: HEK293
# Experimental: (§1) The affinity of compounds at GABA A receptor subtypes was measured by competition for [^3H]flumazenil (85 Ci/mmol; Roche) binding to HEK293 cells expressing rat (stably transfected) or human (transiently transfected) receptors of composition α1β3γ2, α2β3γ2, α3β3γ2 and α5βγ2.
# (§2) Cell pellets were suspended in Krebs-tris buffer (4.8 mM KCl, 1.2 mM CaCl2, 1.2 mM MgCl2, 120 mM NaCl, 15 mM Tris; pH 7.5; binding assay buffer), homogenized by polytron for ca. 20 sec on ice and centrifuged for 60 min at 4° C. (50000 g; Sorvall, rotor: SM24=20000 rpm). The cell pellets were resuspended in Krebs-tris buffer and homogenized by polytron for ca. 15 sec on ice. Protein was measured (Bradford method, Bio-Rad) and aliquots of 1 mL were prepared and stored at −80° C.
# (§3) Radioligand binding assays were carried out in a volume of 200 μL (96-well plates) which contained 100 μL of cell membranes, [^3H]flumazenil at a concentration of 1 nM for α1, α2, α3 subunits and 0.5 nM for α5 subunits and the test compound in the range of 10^−10-3×10^−6 M. Nonspecific binding was defined by 10^−5 M diazepam and typically represented less than 5% of the total binding. Assays were incubated to equilibrium for 1 hour at 4° C. and harvested onto GF/C uni-filters (Packard) by filtration using a Packard harvester and washing with ice-cold wash buffer (50 mM Tris; pH 7.5). After drying, filter-retained radioactivity was detected by liquid scintillation counting. Ki values were calculated using Excel-Fit (Microsoft) and are the means of two determinations.
# [2] = biological target: T2, human GABA A receptor α3β3γ2 (Homo sapiens, UniProt P18507+P34903); settings: for Ki: human α3β3γ2, transiently transfected HEK293, 1 nM [3H]flumazenil, mean of two determinations, read-out: Ki[nM] hα3
# T2 construct: expressed in transfected cells; host or cells: HEK293
# Experimental: as §1, §2, §3
# [3] = biological target: T3, human GABA A receptor α5βγ2 (Homo sapiens, UniProt P18507+P31644); settings: for Ki: human α5βγ2, transiently transfected HEK293, 0.5 nM [3H]flumazenil, mean of two determinations, read-out: Ki[nM] hα5
# T3 construct: expressed in transfected cells; host or cells: HEK293
# Experimental: as §1, §2, §3
# [4] = biological target: T4, human GABA A receptor α2β3γ2 (Homo sapiens, UniProt P18507+P47869); settings: for Ki: human α2β3γ2, transiently transfected HEK293, 1 nM [3H]flumazenil, mean of two determinations, read-out: Ki[nM] hα2
# T4 construct: expressed in transfected cells; host or cells: HEK293
# Experimental: as §1, §2, §3
SMILES,pKi [1],pKi [2],pKi [3],pKi [4],Ki [1],Ki [2],Ki [3],Ki [4]
"FCc1ncn2c1Cn1ncnc1-c1cc(Cl)ccc1-2 [Example 1, 3-Chloro-10-fluoromethyl-9H-imidazo[1,5-a][1,2,4]triazolo[1,5-d][1,4]benzodiazepine]",7.23,7.40,8.03,7.17,,,,
"FC(F)c1ncn2c1Cn1ncnc1-c1cc(Cl)ccc1-2 [Example 2, 3-Chloro-10-difluoromethyl-9H-imidazo[1,5-a][1,2,4]triazolo[1,5-d][1,4]benzodiazepine]",7.28,7.32,8.25,7.09,,,,
"FCc1ncn2c1Cn1ncnc1-c1cc(F)ccc1-2 [Example 3, 3-Fluoro-10-fluoromethyl-9H-imidazo[1,5-a][1,2,4]triazolo[1,5-d][1,4]benzodiazepine]",7.30,7.58,8.04,7.60,,,,
"Fc1ccc2c(c1)-c1ncnn1Cc1c(C(F)F)ncn1-2 [Example 4, 3-Fluoro-10-difluoromethyl-9H-imidazo[1,5-a][1,2,4]triazolo[1,5-d][1,4]benzodiazepine]",7.46,7.81,8.17,7.84,,,,
"Fc1ccc2c(c1)-c1ncnn1Cc1c(C(F)(F)F)ncn1-2 [Example 5, 3-Fluoro-10-trifluoromethyl-9H-imidazo[1,5-a][1,2,4]triazolo[1,5-d][1,4]benzodiazepine]",7.41,7.56,8.15,7.62,,,,
"FCc1ncn2c1Cn1ncnc1-c1cc(Br)ccc1-2 [Example 6, 3-Bromo-10-fluoromethyl-9H-imidazo[1,5-a][1,2,4]triazolo[1,5-d][1,4]benzodiazepine]",6.67,6.97,8.06,6.58,,,,
"FC(F)c1ncn2c1Cn1ncnc1-c1cc(Br)ccc1-2 [Example 7, 3-Bromo-10-difluoromethyl-9H-imidazo[1,5-a][1,2,4]triazolo[1,5-d][1,4]benzodiazepine]",,,,,174 nM,79.6 nM,4.6 nM,185 nM
"FCc1ncn2c1Cn1ncnc1-c1cc(C3CC3)ccc1-2 [Example 8, 3-Cyclopropyl-10-fluoromethyl-9H-imidazo[1,5-a][1,2,4]triazolo[1,5-d][1,4]benzodiazepine]",6.57,6.57,7.83,6.56,,,,
"FC(F)c1ncn2c1Cn1ncnc1-c1cc(C3CC3)ccc1-2 [Example 9, 3-Cyclopropyl-10-difluoromethyl-9H-imidazo[1,5-a][1,2,4]triazolo[1,5-d][1,4]benzodiazepine]",,,7.88,,216 nM,192 nM,,160 nM
"CCc1ccc2c(c1)-c1ncnn1Cc1c(C(F)F)ncn1-2 [Example 10, 10-Difluoromethyl-3-ethyl-9H-imidazo[1,5-a][1,2,4]triazolo[1,5-d][1,4]benzodiazepine]",,,7.50,,272 nM,480 nM,,624 nM
"FC(F)c1ncn2c1Cn1ncnc1-c1cc(Cc3ccccc3)ccc1-2 [Example 11, 3-Benzyl-10-difluoromethyl-9H-imidazo[1,5-a][1,2,4]triazolo[1,5-d][1,4]benzodiazepine]",,,7.58,,455 nM,488 nM,,904 nM
"C#Cc1ccc2c(c1)-c1ncnn1Cc1c(C(F)F)ncn1-2 [Example 12, 10-Difluoromethyl-3-ethynyl-9H-imidazo[1,5-a][1,2,4]triazolo[1,5-d][1,4]benzodiazepine]",,,7.77,,1460 nM,512 nM,,416 nM
"N#Cc1ccc2c(c1)-c1ncnn1Cc1c(C(F)F)ncn1-2 [Example 13, 3-Cyano-10-difluoromethyl-9H-imidazo[1,5-a][1,2,4]triazolo[1,5-d][1,4]benzodiazepine]",6.61,6.98,7.78,6.61,,,,
"CC(F)(F)c1ncn2c1Cn1ncnc1-c1cc(F)ccc1-2 [Example 14, 10-(1,1-Difluoro-ethyl)-3-fluoro-9H-imidazo[1,5-a][1,2,4]triazolo[1,5-d][1,4]benzodiazepine]",,7.13,7.58,7.01,163 nM,,,
"CCC(F)(F)c1ncn2c1Cn1ncnc1-c1cc(F)ccc1-2 [Example 15, 10-(1,1-Difluoro-propyl)-3-fluoro-9H-imidazo[1,5-a][1,2,4]triazolo[1,5-d][1,4]benzodiazepine]",7.82,8.05,8.49,7.95,,,,
"FC(F)c1ncn2c1Cn1ncnc1-c1ccccc1-2 [Example 16, 10-Difluoromethyl-9H-imidazo[1,5-a][1,2,4]triazolo[1,5-d][1,4]benzodiazepine]",7.55,7.98,8.80,7.86,,,,
"FC(F)c1ncn2c1Cn1ncnc1-c1cc(N3CCOCC3)ccc1-2 [Example 17, 3-Morpholin-4-yl-10-difluoromethyl-9H-imidazo[1,5-a][1,2,4]triazolo[1,5-d][1,4]benzodiazepine]",,,,,1870 nM,> 3160 nM,272 nM,> 3160 nM
"CCC(F)c1ncn2c1Cn1ncnc1-c1cc(Br)ccc1-2 (stereo not drawn) [Example 18, 3-Bromo-10-(1-fluoro-propyl)-9H-imidazo[1,5-a][1,2,4]triazolo[1,5-d][1,4]benzodiazepine]",,,7.43,,787 nM,650 nM,,764 nM
"CCC(F)(F)c1ncn2c1Cn1ncnc1-c1cc(Br)ccc1-2 [Example 19, 3-Bromo-10-(1,1-difluoro-propyl)-9H-imidazo[1,5-a][1,2,4]triazolo[1,5-d][1,4]benzodiazepine]",7.48,7.11,8.19,,,,,147 nM
"Cc1nc2n(n1)Cc1c(CF)ncn1-c1ccc(Cl)cc1-2 [Example 20, 3-Chloro-10-fluoromethyl-6-methyl-9H-imidazo[1,5-a][1,2,4]triazolo[1,5-d][1,4]benzodiazepine]",7.30,6.93,8.60,6.74,,,,
"COc1ccc(-c2nc3n(n2)Cc2c(CF)ncn2-c2ccc(Cl)cc2-3)cc1OC [Example 21, 3-Chloro-6-(3,4-dimethoxyphenyl)-10-fluoromethyl-9H-imidazo[1,5-a][1,2,4]triazolo[1,5-d][1,4]benzodiazepine]",,,,,> 3160 nM,> 3160 nM,152 nM,> 3160 nM
